Assay results: patent publication US9150510B2, “Amino acid derivative” (NIPPON ZOKI PHARMACEUTICAL CO., LTD., priority 2008, dated 2015)
Where a name gives a salt, the structure may show the parent alone.

Tests used:
[1] = Test of blood kinetics in the rats; format: in vivo; conditions: rat, plasma, 2 mg/kg, fasted Wistar male rats, oral single dose of mixed solution of five compounds, each compound 2 mg/5 mL/kg, n=5, LC-MS; for AUC(0-inf): read-out: AUC0-∞ (area under the curve for concentration in blood, time 0 to infinite hours); for Cmax: read-out: Cmax (maximum concentration in plasma)
Protocol: Ten milligrams of a compound of the present invention was properly converted to a sodium salt with the same amount of sodium hydroxide, where necessary, and each was dissolved in 5 mL of water. Five compounds each among these aqueous solutions of the compounds of the present inventions were mixed, to prepare a mixed solution containing 0.4 mg/mL each of each compound. Six-week old Wistar SPF male rats that were fasted were orally administered with the mixed solution in a single dose using a gavage tube (each compound 2 mg/5 mL/kg, n=5). At time points of 0.25, 0.5, 1, 2, 4, and 8 hours after the administration, about 150 μL of blood was collected using a heparin-added capillary tube from veins of rat tails. The capillary tubes were centrifuged to collect the plasma. The plasma sample was deprotenized and the supernatant was diluted to prepare each of measurement sample solutions. The concentration of the compound of the present invention in each of measurement sample solutions was quantified using LC-MS, and Cmax (maximum concentration in plasma) and AUC (area under the curve for concentration in blood, time 0 to infinite (∞) hours) of the compounds of the present invention were calculated.

ddY-type mice = assay: Analgesic efficacy test (1): acetic acid writhing test (nociceptive pain model animal); format: in vivo; conditions: Mus musculus, 25 min, writhing number, male ddY mice, acetic acid i.p. 25 min after administration, mean ± standard error, read-out: Percent Suppression (%); for inhibition in vivo at 100 mg/kg: oral single dose 100 mg/kg; for inhibition in vivo at 10 mg/kg: oral single dose 10 mg/kg
From the text: A compound of the present invention was orally administered to mice, to carry out an analgesic efficacy test according to acetic acid writhing test (nociceptive pain model animal). As an experimental animal, 4-week old male ddY-type mice were previously bred, and thereafter 8 mice per one group were used in the experiment. A solution or suspension prepared by dissolving or suspending a compound of the present invention in a 0.5% (w/v) aqueous CMC-Na solution was orally administered as a test substance in a single dose. While, to a control group, a 0.5% (w/v) aqueous CMC-Na solution was administered in the same manner. After 25 minutes from administration, the mice were intraperitoneally administered with a 0.7% (v/v) acetic acid/physiological saline at the dose of 10 mL/kg. From 5 minutes thereafter, writhing number in a 10-minute period was counted, and a suppressive rate for each individual (mean±standard error) was calculated by the following formula: […]
In the test for significance difference, Baltlett's test was carried out in the comparison between multiple groups of the group administered with test substance with the control group. In the case of homoscedasticity, Dunnett's multiple comparison test of parametrics, and in the case of heteroscedasticity, Dunnett's multiple comparison test of non-parametrics were used. In addition, in the test of dose dependency, Jockheere-Terpstra's test was used. In all cases, significance difference was considered to be found at P<0.05.

Chung model rat = assay: Analgesic efficacy test (2): Chung model rat, neuropathic pain model (allodynia, von Frey filament); format: in vivo; conditions: Table 13, Wistar male rats, L5 spinal nerve ligation, mean ± standard error
Protocol: An analgesic efficacy test was conducted using a Chung model rat, a neuropathic pain model. Using Wistar male rats after passing 9-week old as an experimental animal, a model rat was prepared in accordance with the method of Kim and Chung (Pain, 50, 355-363, 1992). Specifically, left L5 spinal nerves of rats were exposed under anesthetization with pentobarbital (35 mg/kg, intraperitoneal administration), and firmly ligated with 5-0 silk yarn at L5 dorsal root ganglion peripheral side. The animals were placed in a transparent acrylic cage of which bottom was wire netted The measurement of allodynia was carried out using von Frey filament (manufactured by North Coast Medical Inc.) and a 50% reaction threshold was calculated according to an up-down method, in accordance with methods of Chaplan et al. (J. Neurosci. Method, 53, 55-63, 1994) and Lee et al. (J. Neurophysiol., 81, 2226-2233, 1999). The 50% reaction thresholds were measured twice before injury of the spinal nerve, and those animals of which thresholds were outside the standard were removed from the operation of spinal nerve injury. On or after 14 days from the spinal nerve injury, a 50% reaction threshold was measured, and those showing thresholds of 1 g or more and less than 4 g were used as experimental animal. The group was constituted by 7 rats per group so that an average of a 50% reaction threshold for each group would be nearly even.
A solution or suspension prepared by dissolving or suspending a compound of the present invention in a 0.5% (w/v) aqueous CMC-Na solution was orally administered as a test substance in a single dose while, a 0.5% (w/v) aqueous CMC-Na solution was administered in the same manner to the control group for nerve injury. After 30 minutes from the administration, the measurement of allodynia was carried out, and a 50% reaction threshold (mean±standard error) was calculated. In the test for significance difference, Baltlett's test was carried out in the comparison between multiple groups of the group administered with test substance with the control group for nerve injury. In the case of homoscedasticity, Dunnett's multiple comparison test of parametrics, and in the case of heteroscedasticity, Dunnett's multiple comparison test of non-parametrics were used. In all cases, significance difference was considered to be found at P<0.05.

SMILES	melting point	AUC(0-inf) [1]	Cmax [1]	other results
C=CC(=O)N[C@@H](Cc1c[nH]c2ccccc12)C(=O)O (as salt: sodium) [Compound 1, N^α-Acryloyl-L-tryptophan]	150 to 151 °C			
O=C(C=Cc1ccccc1O)N[C@@H](Cc1c[nH]c2ccccc12)C(=O)O (as salt: sodium) [Compound 2, N^α-[3-(2-Hydroxyphenyl)acryloyl]-L-tryptophan]	172 to 173 °C			
O=C(C=Cc1ccc(F)cc1)N[C@@H](Cc1c[nH]c2ccccc12)C(=O)O (as salt: sodium) [Compound 5, N^α-[3-(4-Fluorophenyl)acryloyl]-L-tryptophan]	140 to 141 °C			
O=C(C=Cc1cccc(O)c1)N[C@@H](Cc1c[nH]c2ccccc12)C(=O)O (as salt: sodium) [Compound 6, N^α-[3-(3-Hydroxyphenyl)acryloyl]-L-tryptophan]	163 to 164 °C			
O=C(C=Cc1ccc(O)cc1)N[C@@H](Cc1c[nH]c2ccccc12)C(=O)O (as salt: sodium) [Compound 7, N^α-[3-(4-Hydroxyphenyl)acryloyl]-L-tryptophan]	158 to 159 °C			
N#Cc1ccccc1C=CC(=O)N[C@@H](Cc1c[nH]c2ccccc12)C(=O)O (as salt: sodium) [Compound 9, N^α-[3-(2-Cyanophenyl)acryloyl]-L-tryptophan]	124 to 125 °C			
O=C(C=Cc1ccccc1F)N[C@@H](Cc1c[nH]c2ccccc12)C(=O)O [Compound 3, N^α-[3-(2-Fluorophenyl)acryloyl]-L-tryptophan]	104 to 105 °C	26200 ng·h/mL	5800 ng/mL	inhibition in vivo at 3 mg/kg (ddY-type mice; oral single dose 3 mg/kg): 36.9 ± 10.6%
O=C(C=Cc1cc(F)ccc1F)N[C@@H](Cc1c[nH]c2ccccc12)C(=O)O [Compound 15, N^α-[3-(2,5-Difluorophenyl)acryloyl]-L-tryptophan]		19400 ng·h/mL	2800 ng/mL	50% Reaction Threshold (g), Group Administered with Test Substance, 30 Min. After Administration (Chung model rat; oral single dose 10 mg/kg): 9.12 ± 1.55 g; inhibition in vivo at 100 mg/kg (ddY-type mice): 61.3 ± 9.9%
O=C(N[C@@H](Cc1c[nH]c2ccccc12)C(=O)O)c1cc2ccccc2o1 [Compound 20, N^α-(Benzofuran-2-carbonyl)-L-tryptophan]		10200 ng·h/mL	3000 ng/mL	50% Reaction Threshold (g), Group Administered with Test Substance, 30 Min. After Administration (Chung model rat; oral single dose 1 mg/kg): 6.13 ± 0.75 g; inhibition in vivo at 100 mg/kg (ddY-type mice): 41.6 ± 6%
N#CC(=Cc1ccccc1F)C(=O)N[C@@H](Cc1c[nH]c2ccccc12)C(=O)O [Compound 22, N^α-[2-Cyano-3-(2-fluorophenyl)acryloyl]-L-tryptophan]		11400 ng·h/mL	4000 ng/mL	50% Reaction Threshold (g), Group Administered with Test Substance, 30 Min. After Administration (Chung model rat; oral single dose 10 mg/kg): 11.34 ± 1.52 g; inhibition in vivo at 10 mg/kg (ddY-type mice): 39.9 ± 8.6%
Cn1cc(C[C@H](NC(=O)C=Cc2ccccc2)C(=O)O)c2ccccc21 [Compound 29, 1-Methyl-N^α-(3-phenylacryloyl)-L-tryptophan]		238000 ng·h/mL	50600 ng/mL	50% Reaction Threshold (g), Group Administered with Test Substance, 30 Min. After Administration (Chung model rat; oral single dose 10 mg/kg): 6.45 ± 1.39 g; inhibition in vivo at 10 mg/kg (ddY-type mice): 56.8 ± 6.8%
C=CC(=O)N[C@@H](Cc1ccc(OC)cc1)C(=O)O [Compound 38, N-Acryloyl-O^4-methyl-L-tyrosine]		8500 ng·h/mL	2800 ng/mL	50% Reaction Threshold (g), Group Administered with Test Substance, 30 Min. After Administration (Chung model rat; oral single dose 1 mg/kg): 5.44 ± 0.75 g; inhibition in vivo at 100 mg/kg (ddY-type mice): 52 ± 8.2%
